Experimental data taken from patent publication US10508123B2, “Polymorphs” (Vectura Limited, priority 2015, dated 2019).

Tests used:
[1] = Competitive slurrying experiments (solid form by XRPD after one week); assay type: physicochemical
Protocol: 10 mg (+/−1 mg) each of the Form I, Form II, Form III, 1,2-dimethoxtethane solvate and the hydrate of (S)-3-(3-(1-methyl-2-oxo-5-(pyrazolo[1,5-a]pyridine-3-yl)-1H-imidazo[4,5-b]pyridine-3(2H)-yl)piperidin-1-yl)-3-oxopropanenitrile was added to each of twelve vials. The solvent systems used had been pre-saturated with (S)-3-(3-(1-methyl-2-oxo-5-(pyrazolo[1,5-a]pyridine-3-yl)-1H-imidazo[4,5-b]pyridine-3(2H)-yl)piperidin-1-yl)-3-oxopropanenitrile by shaking a slurry of Form I at the relevant temperature for 16 hours and then passing through a 1 μm glass filter.
The resulting slurries were agitated at the temperature shown for a period of one week. The solids present were then isolated by filtration, air dried and characterised by XRPD.

[2] = Solubility of the compound in water (remark in the slurrying results); assay type: physicochemical

In the case of `Cn1c(=O)n([C@H]2CCCN(C(=O)CC#N)C2)c2nc(-c3cnn4ccccc34)ccc21` [Compound (I), (S)-3-(3-(1-methyl-2-oxo-5-(pyrazolo[1,5-a]pyridine-3-yl)-1H-imidazo[4,5-b]pyridine-3(2H)-yl)piperidin-1-yl)-3-oxopropanenitrile], the XRPD characterisation ([1]; vial 1, water, 5 °C, slurry of Form I, II, III, 1,2-dimethoxyethane solvate and hydrate agitated one week, poor recovery hampered interpretation) was “Form II/Hydrate*”, the XRPD characterisation ([1]; vial 2, water, 25 °C, mixed-form slurry, one week) was “Form II/Form III/Hydrate” and the XRPD characterisation ([1]; vial 3, water, 50 °C, mixed-form slurry, one week) was “Form II”. The XRPD characterisation ([1]; vial 4, MEK, 5 °C, mixed-form slurry, one week) was “Form II”, the XRPD characterisation ([1]; vial 5, MEK, 25 °C, mixed-form slurry, one week) was “Form II” and the XRPD characterisation ([1]; vial 6, MEK, 50 °C, mixed-form slurry, one week) was “Form II”. The XRPD characterisation ([1]; vial 7, EtOAc, 5 °C, mixed-form slurry, one week) was “Form II/1,2-dimethoxyethane solvate”, the XRPD characterisation ([1]; vial 8, EtOAc, 25 °C, mixed-form slurry, one week) was “Form II/1,2-dimethoxyethane solvate” and the XRPD characterisation ([1]; vial 9, EtOAc, 50 °C, mixed-form slurry, one week) was “Form II”. The XRPD characterisation ([1]; vial 10, IPA, 5 °C, mixed-form slurry, one week) was “Form II”, the XRPD characterisation ([1]; vial 11, IPA, 25 °C, mixed-form slurry, one week) was “Form II/1,2-dimethoxyethane solvate” and the XRPD characterisation ([1]; vial 12, IPA, 50 °C, mixed-form slurry, one week) was “Form II”. The solubility in water [2] was “poor solubility”.

With `Cn1c(=O)n([C@H]2CCCN(C(=O)CC#N)C2)c2nc(-c3cnn4ccccc34)ccc21` [Form I, (S)-3-(3-(1-methyl-2-oxo-5-(pyrazolo[1,5-a]pyridine-3-yl)-1H-imidazo[4,5-b]pyridine-3(2H)-yl)piperidin-1-yl)-3-oxopropanenitrile] the “form visible in the isolated solids” value ([1]; all vials, except one of the experiments in water) was “No Form I or Form III material was visible”.

For `Cn1c(=O)n([C@H]2CCCN(C(=O)CC#N)C2)c2nc(-c3cnn4ccccc34)ccc21` [Form II, (S)-3-(3-(1-methyl-2-oxo-5-(pyrazolo[1,5-a]pyridine-yl)-1H-imidazo[45-b]pyridine-3(2H)-yl)piperidin-1-yl)-3-oxopropanenitrile], the “thermodynamic stability among the three anhydrous forms” value ([1]; at all three temperatures evaluated (5, 25, 50 °C)) was “most thermodynamically stable”, the “thermodynamic stability compared to the other polymorphic forms or the solvates and hydrates” value ([1]; at temperatures up to 50 °C) was “greater thermodynamic stability” and the “thermodynamic stability compared to the Form 1 and Form III polymorphs” value ([1]; competitive slurrying experiments) was “surprisingly advantageous thermodynamic stability”.

With `Cn1c(=O)n([C@H]2CCCN(C(=O)CC#N)C2)c2nc(-c3cnn4ccccc34)ccc21` [Hydrate I, (S)-3-(3-(1-methyl-2-oxo-5-(pyrazolo[1,5-a]pyridine-3-yl)-1H-imidazo[4,5-b]pyridine-3(2H)-yl)piperidin-1-yl)-3-oxopropanenitrile] the “stability of the hydrate relative to anhydrous Form II” value ([1]; in organic solvents) was “less stable than the anhydrous Form II” and the “conversion of the hydrate in the slurry” value ([1]; water at 50 °C, not at 25 °C or 5 °C) was “complete conversion to Form II”.
